Results published in article PMC9161449, “FUT8-Directed Core Fucosylation of N-glycans Is Regulated by the Glycan Structure and Protein Environment” (ACS Catalysis, 2021).
“And” between values parts separate entries of the source, which are not always exact repeats. Equal values may be shown once. One block for each compound: values may come before it.

Legend:
CHO^KO:mgat1 = test: Site-specific N-glycan analysis of recombinant glycoproteins produced in CHO^KO:mgat1; format: cell-based; conditions: for Man5-GlcNAc2-Fuc/total / Man5-GlcNAc2/total: total = sum of top five glycopeptide intensities by LC–MS
human FUT8 [1] = molecular target: T1, human FUT8 (Homo sapiens, UniProt Q9BYC5); test: Isothermal titration calorimetry (ITC) of ligands binding to FUT8
T1 construct: made in house
T1 sequence (Q9BYC5 1-575): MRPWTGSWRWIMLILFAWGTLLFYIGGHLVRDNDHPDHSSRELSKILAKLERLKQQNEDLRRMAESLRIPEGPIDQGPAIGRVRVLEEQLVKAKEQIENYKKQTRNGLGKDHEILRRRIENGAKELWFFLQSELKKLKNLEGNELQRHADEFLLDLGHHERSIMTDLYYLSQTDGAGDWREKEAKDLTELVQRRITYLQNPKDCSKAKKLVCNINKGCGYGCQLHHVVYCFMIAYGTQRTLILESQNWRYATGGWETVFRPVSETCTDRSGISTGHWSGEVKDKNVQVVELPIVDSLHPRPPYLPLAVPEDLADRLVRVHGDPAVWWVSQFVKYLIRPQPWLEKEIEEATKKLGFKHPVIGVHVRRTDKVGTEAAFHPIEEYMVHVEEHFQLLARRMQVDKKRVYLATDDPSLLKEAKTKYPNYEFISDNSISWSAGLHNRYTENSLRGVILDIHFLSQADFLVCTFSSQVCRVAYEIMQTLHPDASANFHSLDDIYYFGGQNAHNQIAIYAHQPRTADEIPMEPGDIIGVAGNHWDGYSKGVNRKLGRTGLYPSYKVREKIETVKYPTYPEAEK
Method: (§1) The human FUT8 was purified as previously described.[12]
ITC was performed to characterize the interaction of FUT8 with GDP, G0, the G0-peptide, the M3N2-peptide, M3N2, and M5N2-Asn. All experiments were carried out in an Auto-iTC200 (Microcal, GE Healthcare) at 25 °C. The concentration of FUT8 was 70 μM and the ligand concentration ranged from 400 μM to 1 mM. The experiments used 25 mM Tris (pH 7.5) and 150 mM NaCl for the characterization of the binding of FUT8 against GDP and G0. To characterize the binding of FUT8 against all N-glycans in the presence of an excess of GDP, the conditions were 25 mM Tris (pH 7.5), 150 mM NaCl, and 1 mM GDP. The experiments were performed in duplicate. Data integration, correction, and analysis were carried out in Origin 7 (Microcal). The data were fitted to a one-site equilibrium-binding model.

human FUT8 [2] = molecular target: T1, human FUT8; test: STD NMR of ligands with FUT8; format: binding; conditions: 20 μM FUT8, absence or presence of GDP (1 mM), 283 K
Method: All experiments were performed at a temperature of 283 K using a Bruker AVANCE-III 800 MHz spectrometer with a 5 mm TXI triple resonance probe with z axis pulse field gradients (5 mm PATXI 1H-13C/15N/D Z-GRD). The ligands, M3N2, the M3N2-peptide, the G0-peptide, and the naked peptide, had their labile protons exchanged with deuterium by dissolving in D2O, freeze-drying for three times, and finally dissolving at 5 mM in D2O. M3N2-peptide, G0-peptide, and naked peptide ^1H-NMR and ^13C-NMR signals were assigned using ^1H-^13C HSQC (hsqcedetgp), ^1H-^13C HSQC-TOCSY (hsqcgpmlph), TOCSY (mlevph), COSY (cosygmpfqf), and HMBC (hmbcgplpndqf). 2D-NOESY experiments were carried out for M3N2 and the M3N2-peptide using the Bruker pulse program noesygpph with mixing times (d8) of 100, 150, 200, 250, 300, 400, 600, 800, 1000, and 1500 ms. The relaxation time was set to 1 s. Fourier transform was applied to both dimensions and the corresponding horizontal traces were extracted for H1B (4.47 ppm) and H5A (3.42 ppm) in the case of the M3N2-peptide. […] Average H1A-H5A and H1B-H5B distances were calculated from the 1 μs MD simulation and used for the calculation according to the equation in Figure S9c.
STD NMR spectra were measured for the corresponding N-glycans in the presence of 20 μM FUT8 both with and without GDP (1 mM) using the Bruker pulse program stddiff.3. […]

human FUT8 [3] = molecular target: T1, human FUT8; test: FUT8 enzyme kinetics, GDP-Glo luminescence assay; format: biochemical
Method: as §1
Enzyme kinetics for FUT8 were determined using GDP-Glo luminescence assays (Promega). Reactions contained 100 nM FUT8 in 25 mM Tris (pH 7.5), 150 mM NaCl, and 200 μM GDP-fucose in the presence of the ligands. The concentrations of G0, the G0-peptide, the M3N2-peptide, M3N2, and M5N2-Asn ranged from 5 μM to 1 mM. To determine the kinetic parameters for GDP-fucose, we used 100 nM FUT8 in 25 mM Tris (pH 7.5), 150 mM NaCl, and variable concentrations of GDP-fucose (from 5 to 500 μM) in the presence of 500 μM of G0. Reactions were incubated for 30 min at 37 °C and stopped using 5 μL of GDP-detection reagent at a 1:1 ratio in white and opaque 384-well plates. Then, the plates were incubated in the dark for 1 h at room temperature. Subsequently, the luminance values were obtained by using a Synergy HT plate reader (Biotek).
To estimate the amount of GDP produced in the glycosyltransferase reaction, we created a GDP standard curve. The values were corrected for enzyme hydrolysis in the absence of the substrate acceptor and fitted to a nonlinear Michaelis–Menten equation in GraphPad Prism 6 software from which the Km, kcat, and Vmax along with their standard deviations were obtained. All the experiments were performed in duplicate.

human FUT8 [4] = molecular target: T1, human FUT8; test: FUT8 substrate specificity by MALDI-TOF MS; format: biochemical; conditions: 18 μM FUT8, 18 h at RT (long incubation)
Method: Solutions of the different N-glycan structures (1 nmol) were incubated with a FUT8 enzyme (18 μM) and GDP-fucose (2 nmol) in 25 mM Tris and 150 mM NaCl (pH 7.5) (total volume of 10 μL) for 18 h at RT. The reaction mixture was analyzed by MALDI-TOF mass spectrometry employing a solution of 2,5-dihydroxybenzoic acid (DHB, 5 mg/mL in CH3CN:0.1% TFA, 30:70, containing 0.05% NaCl) as a matrix. The MALDI-TOF spectra were recorded on an Ultraflextreme III time-of-flight mass spectrometer equipped with a pulsed Nd:YAG laser (355 nm) and controlled by FlexControl 3.3 software (Bruker Daltonics, Bremen, Germany). The m/z range was selected according to the mass of the sample and the acquired spectra were processed with FlexAnalysis 3.3 software (Bruker Daltonics, Bremen, Germany).

[5] = molecular target: human FUT8 (α-1,6-fucosyltransferase) (human) (UniProt Q9BYC5); test: ITC; Auto-iTC200, 25 °C; FUT8 70 μM, ligand 400 μM to 1 mM; 25 mM Tris pH 7.5, 150 mM NaCl, 1 mM GDP (excess GDP); one-site model; duplicate
[6] = excess GDP (1 mM), 25 °C, pH 7.5
[7] = GDP titrated into FUT8, 25 °C, pH 7.5
[8] = 100 nM FUT8, 37 °C, 30 min, acceptors with 200 μM GDP-fucose, GDP-Fuc with saturating G0 (500 μM)

Compound: EPO: recombinant erythropoietin expressed in CHO cells
Man5-GlcNAc2-Fuc/total (CHO^KO:mgat1; EPO N-glycosite N51): 0.48
Man5-GlcNAc2/total (CHO^KO:mgat1; EPO N-glycosite N51): 0.52
Man5-GlcNAc2-Fuc/total (CHO^KO:mgat1; EPO N-glycosite N65): 0.90
Man5-GlcNAc2/total (CHO^KO:mgat1; EPO N-glycosite N65): 0.10
Man5-GlcNAc2-Fuc/total (CHO^KO:mgat1; EPO N-glycosite N110): 0.67
Man5-GlcNAc2/total (CHO^KO:mgat1; EPO N-glycosite N110): 0.33
Core fucosylation of high-mannose N-glycan in KO mgat1 (CHO^KO:mgat1; N65 glycosite): almost exclusively core-fucosylated
Core fucosylation of high-mannose N-glycans in KO mgat1 (CHO^KO:mgat1; all glycosites): acquired core Fuc to some degree

Compound: CC(=O)N[C@@H]1[C@@H](O)[C@H](O[C@@H]2O[C@H](CO)[C@@H](O[C@@H]3O[C@H](CO[C@H]4O[C@H](CO)[C@@H](O)[C@H](O)[C@@H]4O[C@@H]4O[C@H](CO)[C@@H](O)[C@H](O)[C@H]4NC(C)=O)[C@@H](O)[C@H](O[C@H]4O[C@H](CO)[C@@H](O)[C@H](O)[C@@H]4O[C@@H]4O[C@H](CO)[C@@H](O)[C@H](O)[C@H]4NC(C)=O)[C@@H]3O)[C@H](O)[C@H]2NC(C)=O)[C@@H](CO)O[C@H]1NC(=O)C[C@H](NC(=O)[C@H](C)NC(=O)[C@@H](NC(=O)[C@@H](N)CCCCN)C(C)C)C(=O)N[C@@H](CCCCN)C(=O)N[C@H](C(=O)O)[C@@H](C)O [G0-peptide]
Kd (human FUT8 [1]; [6]): 10 ± 4 µM

Compound: CC(=O)N[C@H]1[C@H](O[C@H]2[C@H](O)[C@@H](NC(C)=O)C(O)O[C@@H]2CO)O[C@H](CO)[C@@H](O[C@@H]2O[C@H](CO[C@H]3O[C@H](CO)[C@@H](O)[C@H](O)[C@@H]3O)[C@@H](O)[C@H](O[C@H]3O[C@H](CO)[C@@H](O)[C@H](O)[C@@H]3O)[C@@H]2O)[C@@H]1O (some centres unmarked) [M3N2, Man3GlcNAc2 N-glycan oligosaccharide]
STD NMR interaction with FUT8 (human FUT8 [2]): no STD NMR signals were observed
FUT8 activity against acceptor substrate (human FUT8 [3]; acceptor 5 μM to 1 mM): inactive
Binding to FUT8 by ITC (human FUT8 [1]; excess GDP (1 mM)): could not determine a Kd
Core fucosylation by FUT8, qualitative (MALDI-TOF MS) (human FUT8 [4]): very poorly glycosylated

Compound: C[C@@H]1O[C@H](OP(=O)(O)OP(=O)(O)OC[C@H]2O[C@@H](n3cnc4c(=O)[nH]c(N)nc43)[C@H](O)[C@@H]2O)[C@@H](O)[C@H](O)[C@@H]1O [GDP-Fuc, GDP-β-L-fucose]
Km (human FUT8 [3]; [8]): 14.6 ± 3.4 µM
Vmax (human FUT8 [3]; [8]): 244.3 ± 13.1 nmol·min^–1·mg^–1
kcat (human FUT8 [3]; [8]): 14.17 ± 0.76 min^–1
Catalytic efficiency of the transfer reaction relative to G0 (human FUT8 [3]; GDP-Fuc more efficient than G0): ~10 fold

Compound: G0-peptide (KVANKT carrying the biantennary complex N-glycan G0 on Asn4)
dH [5]: -3.2 kcal/mol
stoichiometry N [5]: 0.84

More lines, main results first:

Kd (human FUT8 [1]; [6]): 406 ± 159 µM
Compound: CC(=O)N[C@@H]1[C@@H](O)[C@H](O[C@@H]2O[C@H](CO)[C@@H](O[C@@H]3O[C@H](CO[C@H]4O[C@H](CO)[C@@H](O)[C@H](O)[C@@H]4O)[C@@H](O)[C@H](O[C@H]4O[C@H](CO)[C@@H](O)[C@H](O)[C@@H]4O)[C@@H]3O)[C@H](O)[C@H]2NC(C)=O)[C@@H](CO)O[C@H]1NC(=O)C[C@H](NC(=O)[C@H](C)NC(=O)[C@@H](NC(=O)[C@@H](N)CCCCN)C(C)C)C(=O)N[C@@H](CCCCN)C(=O)N[C@H](C(=O)O)[C@@H](C)O [M3N2-peptide, Man3GlcNAc2 N-glycopeptide]

Kd (human FUT8 [1]; [7]): 6.11 µM and 6.1 µM
n (stoichiometry of binding) (human FUT8 [1]; [7]): 0.60
ΔG (human FUT8 [1]; [7]): –7.09 ± 1.65 kcal/mol
ΔH (human FUT8 [1]; [7]): –5.02 ± 0.4 kcal/mol
–TΔS (human FUT8 [1]; [7]): –2.07 ± 0.48 kcal/mol
Compound: Nc1nc2c(ncn2[C@@H]2O[C@H](COP(=O)(O)OP(=O)(O)O)[C@@H](O)[C@H]2O)c(=O)[nH]1 [GDP, reference compound]

dH [5]: 7.7 kcal/mol
stoichiometry N [5]: 1.6
Compound: M3N2-peptide (Man3GlcNAc2 N-glycopeptide, KVANKT)

Initial velocity, fold worse than that of G0 and the G0-peptide (human FUT8 [3]; 1 mM acceptor substrate): ~14 fold
Compound: CC(=O)N[C@@H]1[C@@H](O)[C@H](O[C@@H]2O[C@H](CO)[C@@H](O[C@@H]3O[C@H](CO[C@H]4O[C@H](CO[C@H]5O[C@H](CO)[C@@H](O)[C@H](O)[C@@H]5O)[C@@H](O)[C@H](O[C@H]5O[C@H](CO)[C@@H](O)[C@H](O)[C@@H]5O)[C@@H]4O)[C@@H](O)[C@H](O[C@H]4O[C@H](CO)[C@@H](O)[C@H](O)[C@@H]4O)[C@@H]3O)[C@H](O)[C@H]2NC(C)=O)[C@@H](CO)O[C@H]1NC(=O)C[C@H](N)C(=O)O [M5N2-Asn, Man5GlcNAc2-Asn]
Binding to FUT8 by ITC (human FUT8 [1]; excess GDP (1 mM)): could not observe a binding titration profile
